# Measured values from US20130023569A1, “Use of Deferiprone for Treatment and Prevention of Iron-Related Eye Disorders” (THE TRUSTEES OF THE UNIVERSITY OF PENNSYLVANIA, priority 2009, published 2013).
# Experiments:
# [1] = test system: Cp/Heph double knockout (DKO) mice; assay: Retinal histology of Cp/Heph DKO mice given oral deferiprone in drinking water; format: in vivo, mouse
# Text: (§1) In the following examples, double knockout (DKO) mice were used where the mice were genetically modified to generate a deficiency in the ferroxidase ceruloplasmin (Cp) and its homologue hephaestin (Heph). These mice develop age-related retinal degeneration due to retinal iron accumulation, as do humans. Since the knockout affects all tissues and organs, they also develop other symptoms of localized iron excess, with a simultaneous inability to adequately utilize the available iron for normal homeostasis, such as making new hemoglobin (they have low hematocrits). These animals also develop neurological deficits, including ataxia and die at an early age, typically 6-9 months, although some may survive to 12 or 13 months with significant impaired ability to function The retinas of these Cp/Heph deficient mice accumulate iron in the RPE and photoreceptor outer segments in an age-dependent manner, then develop RPE and photoreceptor degeneration with subretinal neovascularization and sub-RPE wide-spaced collagen deposits. Cp/Heph DKO mice develop retinal, brain, liver, and heart iron overload with iron deficiency anemia. In untreated DKOs, iron gets trapped in the tissues and is not returned to the blood, leading to iron deficiency anemia. There is an age-dependent tissue iron buildup with retinal and brain degeneration.
# (§2) Eye Drop Administration: Beginning at age 5 months (when elevated retinal iron levels are detected), mice were given deferiprone eye drops (10 mg/ml) three times a day in one eye and control water eye drops in the other eye for two months, with the last drop given 2 h prior to sacrifice. Eyes were fixed in 2% paraformaldehyde/2% glutaraldehyde then sectioned for analysis of morphology (following staining with Toluidine Blue) and iron content (following staining with Perls' Prussian Blue). The number and length of retinal pigment epithelial (RPE) cell hypertrophy and photoreceptor atrophy areas were quantified in deferiprone-treated vs. water-treated control eyes. The intensity of Perls' stain in the ciliary body, retina and RPE were assessed in digital photomicrographs quantifying pixel density.
# Oral Administration: DKO mice were given deferiprone in their drinking water at a concentration of (1 mg/ml). The mice typically drink 5 ml of water a day and weigh 30 g. Mice began drinking deferiprone/water at age 7 months since that is the time such mice normally develop the retinal changes consistent with AMD. The animals were sacrificed at various time points that are known to represent significant retinal and neurological damage in untreated animals and the eyes of sacrificed animals were analyzed as noted above.
# [2] = test system: transferrin Receptor (TfR) mRNA; assay: TfR mRNA by qPCR in retina and RPE/choroid of wild type mice, oral deferiprone; format: in vivo, mouse; settings: 1 mg/ml in drinking water PO for 11 days, n=4, vs untreated
# Experimental: FIG. 2 is two graphs showing relative quantification of transferrin Receptor (TfR) mRNA levels in the retinas and retinal pigment epithelia (RPE)/choroids of deferiprone treated and untreated wild type mice in retinas (FIG. 2A) and in RPE/choroids (FIG. 2B). The treated mice (n=4) were given deferiprone for 11 days PO (1 mg/ml in the drinking water). […] Relative quantification of TfR expression is also shown for the RPE/choroids (See FIG. 2B) of treated in comparison to untreated animals.
# [3] = test system: transferrin receptor messenger ribonucleic acid (TfR mRNA); assay: TfR mRNA by qPCR in RPE/choroid after deferiprone eye drops; format: in vivo, mouse; settings: eye drops 10 mg/ml three times a day for two months, right eye treated vs left eye control
# Experimental: FIG. 3 is a graph illustrating the amount of transferrin receptor messenger ribonucleic acid (TfR mRNA) in the RPE/choroid from a treated eye and an untreated eye. The error bars represent SD of 3 PCR reactions using the same batch of mRNA template.
# as §2
# The mouse had the right eye (OD) treated with deferiprone topically (in the form of the eye drops, 10 mg/ml) three times a day for two months, whereas the left eye (OS) was used as an internal control. The last administration was given 2 h prior to sacrifice. Relative quantification of TfR mRNA was detected by qPCR. […]
# [4] = test system: retinal iron; assay: Perls' stain of retinal iron in DKO mice, oral deferiprone; format: in vivo; settings: 13 month old DKO mouse, PO 1 mg/ml in drinking water for 9 months, vs untreated DKO
# Text: FIG. 4 illustrates three Perls' stains of 7 and 13 month old untreated DKO mice retinas (FIGS. 4A and 4B, respectively) and of a treated 13 month old DKO mouse (FIG. 4C). The following abbreviations appear in the Figures: RPE, retinal pigment epithelium; ONL, outer nuclear layer; OPL, outer plexiform layer; IPL, inner plexiform layer; GCL, ganglion cell layer. Scale bar: 50 μm.
# as §2, with “Eyes were fixed in 2% paraformaldehyde/2% glutaraldehyde then sectioned for analysis of morphology (following staining with Toluidine Blue) and iron content (following staining with Perls' Prussian Blue).” left out
# (§3) Oral Administration: DKO mice were given deferiprone in their drinking water at a concentration of (1 mg/ml). […] The animals were sacrificed at various time points that are known to represent significant retinal and neurological damage in untreated animals and the eyes of sacrificed animals were analyzed as noted above. […]
# [5] = Hematocrit in DKO mice, oral deferiprone; format: in vivo, mouse
# Text: as §1, with “Cp/Heph DKO mice develop retinal, brain, liver, and heart iron overload with iron deficiency anemia. In untreated DKOs, iron gets trapped in the tissues and is not returned to the blood, leading to iron deficiency anemia. There is an age-dependent tissue iron buildup with retinal and brain degeneration.” left out
# as §3
# [6] = test system: Cp/Heph double knockout (DKO) mice; assay: Survival (Kaplan-Meier) and ataxia of DKO mice, oral deferiprone; format: in vivo, mouse
# Text: FIG. 7 is a Kaplan-Meier survival curve for deferiprone treated and untreated DKO mice.
# In the following examples, double knockout (DKO) mice were used where the mice were genetically modified to generate a deficiency in the ferroxidase ceruloplasmin (Cp) and its homologue hephaestin (Heph). These mice develop age-related retinal degeneration due to retinal iron accumulation, as do humans. Since the knockout affects all tissues and organs, they also develop other symptoms of localized iron excess, with a simultaneous inability to adequately utilize the available iron for normal homeostasis, such as making new hemoglobin (they have low hematocrits). […]
# Oral Administration: DKO mice were given deferiprone in their drinking water at a concentration of (1 mg/ml). […] The animals were sacrificed at various time points that are known to represent significant retinal and neurological damage in untreated animals and the eyes of sacrificed animals were analyzed as noted above.
# (P<0.0001). The lifespan of the treated animals is an under-estimate, as these mice were sacrificed for iron quantification before they became sick. […]
# [7] = test system: eye of Hra:(NZW)SPF rabbits; assay: Sensitivity testing of eye drops: ocular irritation/corrosion (Draize, sodium fluorescein); format: in vivo, rabbit
# Experimental: The ocular irritation/corrosion potential of the product was assessed by instilling approximately 0.1 mL at a concentration of about 13 mg/mL into the everted lower lid of the right eye of 3 male Hra:(NZW)SPF rabbits; the left eye served as the untreated control. Approximately 24 hours after instillation, the treated eyes were examined for corneal injury and washed using room-temperature physiological saline.
# [8] = cited from earlier work
smiles,measurement,setting,value
Cc1c(O)c(=O)ccn1C [deferiprone],retina appearance (toluidine blue plastic sections),"[1]; 14 month Cp/Heph knockout, oral deferiprone for 5 months, FIG. 1",appears normal except for a few mildly hypertrophic RPE cells
same,retinal degeneration and damage,"[1]; DKO mice 12-14 months old, deferiprone 1 mg/ml in drinking water for 5-7 months",almost no retinal degeneration and damage
same,retinal tissue histology,"[1]; DKO mice, deferiprone 1 mg/ml PO in drinking water for 6-9 months, FIG. 5",near normal tissue
same,"areas of RPE hypertrophy, share of the retina involved","[1]; most severely affected regions, DKO mice, deferiprone 1 mg/ml PO for 6-9 months, untreated more than 90%",< 10%
same,"TfR mRNA levels in retinas (relative quantification, standardized to 18S RNA)",[2],significant up regulation of TfR mRNA levels
same,TfR expression in RPE/choroids (relative quantification),[2]; P<0.05,significant difference
same,TfR mRNA in RPE/choroid (relative quantification),[3],siqnificant TfR mRNA increase
same,retinal iron (Perls' stain),[4],decreased retinal iron
same,"hematocrit, mean value","[5]; deferiprone-treated DKO mice n=7, untreated mean 24.6%, P<0.05",36.7%
same,hematocrit at time of sacrifice,"[5]; treated DKO mice 12 and 14 months old, 1 mg/ml in drinking water 5-7 months, untreated 19-26%",30-50%
same,ataxia,"[6]; DKO mice, 1 mg/ml in drinking water, 2 mice at 14 months and 2 at 12 months",some mild ataxia
same,median survival,"[6]; treated DKO mice, LogRank test, untreated 7 months, P<0.0001",13 months
same,"eye irritation, Draize score","[7]; 0.1 mL of about 13 mg/mL into right eye of 3 male rabbits, 1, 24, 48 and 72 hours after instillation",0
same,"corneal injury, sodium fluorescein test","[7]; about 24 hours post dose, about 13 mg/mL, rabbits",no injury to the cornea
same,half life,[8]; humans,about 2 hours
same,"agranulocytosis, share of patients","[8]; thalassemia patients, oral doses 75 to 100 mg/kg/day",about 1%
